This note sets out measurements from ChEMBL document CHEMBL1146573, “Antioxidant activity of a new capsaicin derivative from Capsicum annuum” (J Nat Prod, 2003).

The IC50 is the concentration at which inhibition is half-maximal.

The assay can be described thus: Antioxidant activity in egg yolk liposomes assessed as inhibition of ADP/Fe(2+)-induced lipid peroxidation after 15 mins by TBARS method. It counts as functional.

Structures are written as SMILES.

Turning to `Cc1c(C)c2c(c(C)c1O)CC[C@@](C)(CCC[C@H](C)CCC[C@H](C)CCCC(C)C)O2` [ALPHA-TOCOPHEROL], the IC50 was found to be 250 µM.

On to `COc1cc(CNC(=O)CCCC/C=C/C(C)C)cc(-c2cc(CNC(=O)CCCCCCC(C)C)cc(OC)c2O)c1O`, for which the IC50 was more than 10 µM.
